Values after ≈ are worked out from the molar mass of the structure shown. Where two headings read alike, the source gives them in different places. Each block holds one compound with its values, some of them ahead of it.
Legend:
[1] = tested on: Staphylococcus aureus (ATCC12600); assay: Agar well diffusion antimicrobial assay; conditions: ATCC12600, 24 h, read-out: inhibition zone, S. aureus
[2] = tested on: Bacillus subtilis (ATCC 6051); assay: Agar well diffusion antimicrobial assay; conditions: ATCC6051, 24 h, read-out: inhibition zone, B. subtilis
[3] = tested on: Klebsiella pneumoniae (ATCC10145); assay: Agar well diffusion antimicrobial assay; conditions: ATCC10145, 24 h, read-out: inhibition zone, K. pneumoniae
gastric mucosa [4] = assay: Histopathology examination of stomach; assay type: in vivo, rat
Experimental: The stomach was dissected out, rinsed, and kept in a 10% neutral formalin solution. After fixation, tissues were routinely processed and stained with hematoxylin and eosin for light microscopy. Lesion scores were evaluated in this study according to a published report three parameters were evaluated in relation to their severity; epithelial cell loss was given a score from 0 to 3, hemorrhage was given a score from 0 to 4, and a score from 0 to 2 was given for inflammatory cell infiltration. The total score was given by the summation of the three scores.

Candida albicans = assay: Agar well diffusion antifungal assay
[5] = tested on: carrageenan-induced paw edema; assay: Carrageenan-induced rat paw edema assay; assay type: in vivo; conditions: oral
Experimental: The present study was performed on adult albino Wistar rats, weighing 185 ± 200 g. Animals were kept in the animal house at MSA university. They were kept under suitable conditions of humidity and temperature (humidity 60–70%, temperature 24 ± 2 °C). The animals were fed by standard pellet chow (El-Nasr chemical Co., Cairo, Egypt) and were given access to water ad libitum.
Inflammation was induced in all groups by carrageenan (0.2 mL, 1% saline solution), which was injected subcutaneously into the plantar surface of the right hind paw. Group 1 served as a normal group, group 2 received carrageenan only, and groups 3, 4, 5, 6, and 7 received the test drugs orally 1 h before carrageenan (n = 6). Edema was measured in diameter (mm) at 1 h, 2 h, 4 h, and 6 h after carrageenan injection using a digital caliper. Percentage edema inhibition was calculated as [1 − (sample diameter/control diameter)] × 100. All data of the paw edema are represented as mean ± SD.
The strength of the tested dendrimers to inhibit edema (% edema inhibition) was calculated based on the changes in paw thickness (edema diameter, mm) at different periods; 1 h, 2 h, 4 h, and 6 h (Table 4).

PGE2 = assay: Determination of rat serum PGE2; assay type: in vivo; conditions: 6 h after carrageenan, oral
Experimental: Inflammation was induced in all groups by carrageenan (0.2 mL, 1% saline solution) injected subcutaneously into the plantar surface of the right hind paw. Group 1 served as a normal group, group 2 received carrageenan only, and groups 3, 4, 5, 6, and 7 received the test drugs orally 1 h before carrageenan (n = 6) [58]. Blood samples were collected from all groups and centrifuged for 15 minutes to separate the serum and measure serum PGE2 Pg/mL. Percentage inhibition was calculated as [1 − (sample PGE2 concentration/control PGE2 concentration)] × 100. All data of the PGE2 concentration are represented as mean ± SD.
The ability of the dendrimers to inhibit PGE2 was evaluated by measuring the rat serum concentration of PGE2 in blood samples collected after 6 h from subcutaneous carrageenan injection.

Aspergillus niger = assay: Agar well diffusion antifungal assay
gastric mucosa [6] = assay: Evaluation of gastrointestinal toxicity (gastric ulcers); assay type: in vivo; conditions: rat, 400 mg/kg orally, 4 h, mean ± standard deviation
Experimental: The gastric mucosa was carefully inspected for the occurrence of ulcers with the aid of an illuminated magnifying lens (l0×), the ulcer score was calculated according to published method and ulcer index was determined using the reported formula [60]. Ulcer index = 10/x, where x= total mucosal area/ total ulcerated area. All data are represented as mean ± standard deviation.
Rats were fasted for 24 h and then randomly allocated into the following groups to evaluate the potential toxicity of dendrimers on the stomach:
Group 3 received G1 (400 mg/kg) orally.
Group 4 received G2 (400 mg/kg) orally.
Group 5 received G3 (400 mg/kg) orally.
Group 6 received G4 (400 mg/kg) orally.
Animals were left for 4 h and then sacrificed under light anesthesia for stomach dissection. The gastric mucosa was carefully inspected for the occurrence of ulcers with the aid of an illuminated magnifying lens (l0x), the ulcer score was calculated based on published study and ulcer index was determined using the reported formula [60]. Ulcer index = 10/x, where x= total mucosal area/total ulcerated area.

[7] = tested on: breast cancer cell lines (MCF-7); assay: MTT cell viability assay; assay type: cell-based; conditions: Homo sapiens, MCF7, mean ± SE, unit inferred, read-out: Cytotoxicity (IC50), MCF-7
Experimental: (§1) The cytotoxic activities of the tested dendrimers against the breast cancer cell line MCF-7, embryonic kidney non-cancer cells (HEK-293), and hepatic cellular Hep-G2 were evaluated by MTT assay. A cell suspension was diluted with complete medium to a concentration of 5 × 10^4 cell/ml. By using a micropipette, 100 μL aliquots of the cell suspension were pipetted into all wells of 96-well plate (~5000 cells/well). These plates were incubated at 37 °C for one day to allow cell attachment. Then, cells were treated using 100 µL of growth medium consisting of 0, 0.001, 0.01, 0.1, 1, 10, or 100 μL of the freshly prepared aspirin-based dendrimers in triplicate. After that, cells were rinsed with phosphate-buffered saline (PBS), and an appropriate fresh medium including 20 μL MTT in phosphate-buffered saline (0.5 mg/mL) was added to the test wells. The 96-well plate was then further incubated in a carbon dioxide incubator at 37 °C for another 4 h, and the MTT assay study was done. The MTT assay procedure is based on the reduction of the tetrazolium salt MTT to unsolvable purple formazan via metabolically effective cells, making their activities quantifiable via spectrophotometry. Consequently, the produced formazan crystals were dissolved in 120 μL DMSO solvent for each well. Cell viability was established by measuring the absorbance of each well at 570 nm, and at a reference wavelength of 630 nm using an ELISA plate reader. […] Vinblastine was used as the standard and the corresponding IC50 values were determined by Equation (1):(1) IC50(%)=ControlOD−CompoundOD/ControlODx 100

MTT cell viability assay = assay type: cell-based; conditions: human, mean ± SE, unit inferred
Experimental: as §1

[8] = tested on: Escherichia coli (ATCC 1175); assay: Agar well diffusion antimicrobial assay; conditions: ATCC1175, 24 h, read-out: inhibition zone, E. coli
COX-2 = target: T1, COX-2 (Ovis aries, UniProt P79208); assay: In vitro COX-2 inhibition assay (ovine COX-1/COX-2 assay kit); assay type: biochemical
T1 construct: purchased
T1 sequence (P79208 17-603): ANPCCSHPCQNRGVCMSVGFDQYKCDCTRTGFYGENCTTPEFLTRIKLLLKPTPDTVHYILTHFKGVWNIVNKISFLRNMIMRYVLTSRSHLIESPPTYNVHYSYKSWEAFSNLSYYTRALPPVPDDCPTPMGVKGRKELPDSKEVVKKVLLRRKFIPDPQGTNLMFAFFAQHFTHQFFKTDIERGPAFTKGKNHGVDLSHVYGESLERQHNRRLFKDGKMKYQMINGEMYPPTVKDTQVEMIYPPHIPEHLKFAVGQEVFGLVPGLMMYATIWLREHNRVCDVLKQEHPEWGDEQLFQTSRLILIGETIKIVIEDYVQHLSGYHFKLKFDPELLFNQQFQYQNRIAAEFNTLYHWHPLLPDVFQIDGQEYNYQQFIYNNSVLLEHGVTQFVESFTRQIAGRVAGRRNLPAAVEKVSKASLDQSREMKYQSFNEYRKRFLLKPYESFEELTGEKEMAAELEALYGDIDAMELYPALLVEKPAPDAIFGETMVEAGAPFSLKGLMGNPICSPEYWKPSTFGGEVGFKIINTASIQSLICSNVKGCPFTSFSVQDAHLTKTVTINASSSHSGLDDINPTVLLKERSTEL
Source text: The selectivity index (SI values) was defined as IC50 COX-1/ IC50 COX-2.
Recent studies on COX-1 and COX-2 inhibitors are focused on increasing the selectivity index of drugs towards […] as it acts as the main effector in the mechanism of pain and inflammation.

[9] = rat stomach, compared to the aspirin group
[10] = HEK-293 embryonic kidney non-cancer cells, normal cell line, read-out: Cytotoxicity (IC50), HEK-293
[11] = Hep-G2 cells, read-out: Cytotoxicity (IC50), Hep-G2
[12] = 15 mg/mL, agar well diffusion, 37 °C 24 h, mean ± SE

Compound: CC1(C)S[C@@H]2[C@H](NC(=O)[C@H](N)c3ccccc3)C(=O)N2[C@H]1C(=O)O [Ampicillin]
zone of inhibition at 15000 µg/mL [1]: 15 ± 0.05 mm
zone of inhibition at 15000 µg/mL [2]: 25 ± 0.06 mm

Hemorrhage score (gastric mucosa [4]; [9]): highest score of hemorrhage
Histopathological findings of stomach tissue (gastric mucosa [4]; rat, 400 mg/kg orally, H&E): serious histopathological alterations
Compound: CC(=O)Oc1ccccc1C(=O)O [Aspirin, acetylsalicylic acid]
zone of inhibition at 15000 µg/mL [1]: 30 ± 0.07 mm
zone of inhibition at 15000 µg/mL [3]: 26 ± 0.11 mm
Epithelial loss score (gastric mucosa [4]; [9]): significantly higher epithelial loss score
zone of inhibition at 15000 µg/mL [2]: 23 ± 0.08 mm
zone of inhibition at 15000 µg/mL (Candida albicans; Candida albicans, 24 h, read-out: inhibition zone, C. albicans): 29 ± 0.09 mm
% Inhibition of edema 1 h ([5]; 1 h after carrageenan): 34.82%
% Inhibition of edema 2 h ([5]; 2 h after carrageenan): 42.23%
% Inhibition of edema 4 h ([5]; 4 h after carrageenan): 35.08%
% Inhibition of edema 6 h ([5]; 6 h after carrageenan): 47.38%
PGE2 Inhibition% (PGE2): 72.40%
zone of inhibition at 15000 µg/mL (Aspergillus niger; Aspergillus niger, 24 h, read-out: inhibition zone, A. niger): 30 ± 0.1 mm
Gastric Mucosal Lesions, Ulcer Area (gastric mucosa [6]): 86.9 ± 9.51 mm²
Gastric Mucosal Lesions, Ulcer Score (gastric mucosa [6]): 5.00 ± 0.00
IC50 [7]: 208.96 ± 0.05 µg/mL (≈ 1160 µM)
IC50 (MTT cell viability assay; [10]): 240.18 ± 0.03 µg/mL (≈ 1330 µM)
IC50 (MTT cell viability assay; [11]): 192.4 ± 0.04 µg/mL (≈ 1070 µM)
zone of inhibition at 15000 µg/mL [8]: 18 ± 0.06 mm

Compound: COc1cccc2c1C(=O)c1c(O)c3c(c(O)c1C2=O)C[C@@](O)(C(=O)CO)C[C@@H]3O[C@H]1C[C@H](N)[C@H](O)[C@H](C)O1 [Doxorubicin]
IC50 [7]: 5.7 ± 0.07 µg/mL (≈ 10.5 µM)
IC50 (MTT cell viability assay; [10]): 205.07 ± 0.05 µg/mL (≈ 377 µM)
IC50 (MTT cell viability assay; [11]): 4.8 ± 0.09 µg/mL (≈ 8.83 µM)

Compound: CNC(C)C1CCC(N)C(OC2C(N)CC(N)C(OC3OCC(C)(O)C(NC)C3O)C2O)O1 (centres unmarked) [Gentamicin]
zone of inhibition at 15000 µg/mL [3]: 22 ± 0.02 mm
zone of inhibition at 15000 µg/mL [8]: 17 ± 0.04 mm

Compound: C[C@@H]1[C@H](O)[C@@H](C)/C=C/C=C/CC/C=C/C=C/C=C/C=C/C(O[C@H]2O[C@H](C)[C@@H](O)[C@H](N)[C@@H]2O)CC2O[C@](O)(CC(O)C(O)CCC(O)CC(O)CC(O)CC(=O)O[C@H]1C)CC(O)C2C(=O)O (some centres unmarked) [Nystatin]
inhibition zone, C. albicans (Candida albicans; [12]): 21 ± 0.11 mm
inhibition zone, A. niger (Aspergillus niger; [12]): 15 ± 0.08 mm

IC50 (COX-2): 25 nM
Compound: CS(=O)(=O)c1ccc(C2=C(c3ccccc3)C(=O)OC2)cc1 [Rofecoxib]

Source: PMC8615929, “Aspirin-Based Organoiron Dendrimers as Promising Anti-Inflammatory, Anticancer, and Antimicrobial Drugs” (Biomolecules, 2021)
